{"source": "patent US8802597B2", "about": "“Herbicidal pyrimidines” (E I du Pont de Nemours and Company, priority 2003, dated 2014)", "test_in_all_cases": "Test C pre/postemergence", "assay_type_in_all_cases": "in vivo", "key": {"[1]": {"system": "woolly cupgrass (Eriochloa villosa)", "settings": "Eriochloa villosa; for pest or weed control at 62 g/ha: 62 g ai/ha; for pest or weed control at 125 g/ha: 125 g ai/ha; for pest or weed control at 250 g/ha: 250 g ai/ha; for pest or weed control at 500 g/ha: 500 g ai/ha", "summary_of_the_method": "(§1)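 We sprayed seeded pots preemergence and 2–18 cm seedlings postemergence with test chemicals in a non-phytotoxic solvent mixture including surfactant. Greenhouse plants were visually compared with untreated controls at 12 to 14 days and scored 0 (no effect) to 100 (complete control).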"}, "[2]": {"system": "common ragweed (Ambrosia elatior)", "settings": "Ambrosia artemisiifolia; for pest or weed control at 62 g/ha: 62 g ai/ha; for pest or weed control at 125 g/ha: 125 g ai/ha; for pest or weed control at 250 g/ha: 250 g ai/ha; for pest or weed control at 500 g/ha: 500 g ai/ha", "summary_of_the_method": "as §1"}, "[3]": {"system": "Surinam grass (Brachiaria decumbens)", "settings": "Urochloa decumbens; for pest or weed control at 125 g/ha: 125 g ai/ha; for pest or weed control at 500 g/ha: 500 g ai/ha; for pest or weed control at 62 g/ha: 62 g ai/ha; for pest or weed control at 250 g/ha: 250 g ai/ha", "summary_of_the_method": "as §1"}, "[4]": {"system": "giant foxtail (Setaria faberii)", "settings": "Setaria faberi; for pest or weed control at 125 g/ha: 125 g ai/ha; for pest or weed control at 500 g/ha: 500 g ai/ha; for pest or weed control at 62 g/ha: 62 g ai/ha; for pest or weed control at 250 g/ha: 250 g ai/ha", "summary_of_the_method": "as §1"}, "[5]": {"system": "morningglory (Ipomoea coccinea)", "settings": "Ipomoea; for pest or weed control at 62 g/ha: 62 g ai/ha; for pest or weed control at 125 g/ha: 125 g ai/ha; for pest or weed control at 250 g/ha: 250 g ai/ha; for pest or weed control at 500 g/ha: 500 g ai/ha", "summary_of_the_method": "as §1"}, "[6]": {"system": "eastern black nightshade (Solanum ptycanthum)", "settings": "Solanum, pre-emergence, Preemergence, read-out: Plant response rating, Nightshade", "summary_of_the_method": "as §1"}, "[7]": {"system": "bermudagrass (Cynodon dactylon)", "settings": "Cynodon dactylon, post-emergence, Postemergence", "summary_of_the_method": "as §1"}, "[8]": {"settings": "post-emergence, Postemergence, scale 0 to 100 (0 no effect, 100 complete control), read-out: Cupgrass, Woolly plant response rating"}, "[9]": {"settings": "post-emergence, Postemergence, scale 0 to 100, read-out: Plant response rating, Cupgrass, Woolly"}, "[10]": {"settings": "pre-emergence, Preemergence, scale 0 to 100, read-out: Plant response rating, Cupgrass, Woolly"}, "[11]": {"settings": "post-emergence, Postemergence, scale 0 to 100 (0 no effect, 100 complete control), read-out: Ragweed plant response rating"}, "[12]": {"settings": "post-emergence, Postemergence, scale 0 to 100, read-out: Plant response rating, Ragweed"}, "[13]": {"settings": "pre-emergence, Preemergence, scale 0 to 100, read-out: Plant response rating, Ragweed"}, "[14]": {"settings": "post-emergence, Postemergence, scale 0 to 100 (0 no effect, 100 complete control), read-out: Surinam Grass plant response rating"}, "[15]": {"settings": "post-emergence, Postemergence, scale 0 to 100, read-out: Plant response rating, Surinam Grass"}, "[16]": {"settings": "pre-emergence, Preemergence, scale 0 to 100, read-out: Plant response rating, Surinam Grass"}, "[17]": {"settings": "post-emergence, Postemergence, scale 0 to 100 (0 no effect, 100 complete control), read-out: Foxtail, Giant plant response rating"}, "[18]": {"settings": "post-emergence, Postemergence, scale 0 to 100, read-out: Plant response rating, Foxtail, Giant"}, "[19]": {"settings": "pre-emergence, Preemergence, scale 0 to 100, read-out: Plant response rating, Foxtail, Giant"}, "[20]": {"settings": "post-emergence, Postemergence, scale 0 to 100 (0 no effect, 100 complete control), read-out: Morningglory plant response rating"}, "[21]": {"settings": "post-emergence, Postemergence, scale 0 to 100, read-out: Plant response rating, Morningglory"}, "[22]": {"settings": "pre-emergence, Preemergence, scale 0 to 100, read-out: Plant response rating, Morningglory"}}, "note": "Like-named read-outs stand apart in the source and are kept apart here.", "data": [{"smiles": "CNc1nc(C2CC2)nc(C(=O)OC)c1Br", "note": "[Compound 5]", "values": [{"measurement": "pest or weed control at 62 g/ha", "setting": "[1]; [8]", "result": 5, "unit": "%"}, {"measurement": "pest or weed control at 125 g/ha", "setting": "[1]; [8]", "result": 50, "unit": "%"}, {"measurement": "pest or weed control at 250 g/ha", "setting": "[1]; [9]", "result": 50, "unit": "%"}, {"measurement": "pest or weed control at 500 g/ha", "setting": "[1]; [9]", "result": 70, "unit": "%"}, {"measurement": "pest or weed control at 62 g/ha", "setting": "[1]; pre-emergence, Preemergence, scale 0 to 100, 0 no effect, 100 complete control, read-out: Plant response rating, Cupgrass, Woolly", "result": 0, "unit": "%"}, {"measurement": "pest or weed control at 125 g/ha", "setting": "[1]; [10]", "result": 0, "unit": "%"}, {"measurement": "pest or weed control at 250 g/ha", "setting": "[1]; [10]", "result": 0, "unit": "%"}, {"measurement": "pest or weed control at 500 g/ha", "setting": "[1]; [10]", "result": 0, "unit": "%"}, {"measurement": "pest or weed control at 62 g/ha", "setting": "[2]; [11]", "result": 90, "unit": "%"}, {"measurement": "pest or weed control at 125 g/ha", "setting": "[2]; [11]", "result": 95, "unit": "%"}, {"measurement": "pest or weed control at 250 g/ha", "setting": "[2]; [12]", "result": 95, "unit": "%"}, {"measurement": "pest or weed control at 500 g/ha", "setting": "[2]; [12]", "result": 100, "unit": "%"}, {"measurement": "pest or weed control at 62 g/ha", "setting": "[2]; pre-emergence, Preemergence, scale 0 to 100, 0 no effect, 100 complete control, read-out: Plant response rating, Ragweed", "result": 85, "unit": "%"}, {"measurement": "pest or weed control at 125 g/ha", "setting": "[2]; [13]", "result": 90, "unit": "%"}, {"measurement": "pest or weed control at 250 g/ha", "setting": "[2]; [13]", "result": 100, "unit": "%"}, {"measurement": "pest or weed control at 500 g/ha", "setting": "[2]; [13]", "result": 100, "unit": "%"}, {"measurement": "pest or weed control at 125 g/ha", "setting": "[3]; [14]", "result": 20, "unit": "%"}, {"measurement": "pest or weed control at 500 g/ha", "setting": "[3]; [15]", "result": 70, "unit": "%"}, {"measurement": "pest or weed control at 62 g/ha", "setting": "[3]; [14]", "result": 0, "unit": "%"}, {"measurement": "pest or weed control at 250 g/ha", "setting": "[3]; [15]", "result": 30, "unit": "%"}, {"measurement": "pest or weed control at 62 g/ha", "setting": "[3]; pre-emergence, Preemergence, scale 0 to 100, 0 no effect, 100 complete control, read-out: Plant response rating, Surinam Grass", "result": 0, "unit": "%"}, {"measurement": "pest or weed control at 125 g/ha", "setting": "[3]; [16]", "result": 0, "unit": "%"}, {"measurement": "pest or weed control at 250 g/ha", "setting": "[3]; [16]", "result": 0, "unit": "%"}, {"measurement": "pest or weed control at 500 g/ha", "setting": "[3]; [16]", "result": 0, "unit": "%"}, {"measurement": "pest or weed control at 125 g/ha", "setting": "[4]; [17]", "result": 30, "unit": "%"}, {"measurement": "pest or weed control at 500 g/ha", "setting": "[4]; [18]", "result": 60, "unit": "%"}, {"measurement": "pest or weed control at 62 g/ha", "setting": "[4]; [17]", "result": 20, "unit": "%"}, {"measurement": "pest or weed control at 250 g/ha", "setting": "[4]; [18]", "result": 50, "unit": "%"}, {"measurement": "pest or weed control at 62 g/ha", "setting": "[4]; pre-emergence, Preemergence, scale 0 to 100, 0 no effect, 100 complete control, read-out: Plant response rating, Foxtail, Giant", "result": 0, "unit": "%"}, {"measurement": "pest or weed control at 125 g/ha", "setting": "[4]; [19]", "result": 0, "unit": "%"}, {"measurement": "pest or weed control at 250 g/ha", "setting": "[4]; [19]", "result": 10, "unit": "%"}, {"measurement": "pest or weed control at 500 g/ha", "setting": "[4]; [19]", "result": 60, "unit": "%"}, {"measurement": "pest or weed control at 62 g/ha", "setting": "[5]; [20]", "result": 95, "unit": "%"}, {"measurement": "pest or weed control at 125 g/ha", "setting": "[5]; [20]", "result": 95, "unit": "%"}, {"measurement": "pest or weed control at 250 g/ha", "setting": "[5]; [21]", "result": 100, "unit": "%"}, {"measurement": "pest or weed control at 500 g/ha", "setting": "[5]; [21]", "result": 100, "unit": "%"}, {"measurement": "pest or weed control at 62 g/ha", "setting": "[5]; pre-emergence, Preemergence, scale 0 to 100, 0 no effect, 100 complete control, read-out: Plant response rating, Morningglory", "result": 50, "unit": "%"}, {"measurement": "pest or weed control at 125 g/ha", "setting": "[5]; [22]", "result": 80, "unit": "%"}, {"measurement": "pest or weed control at 250 g/ha", "setting": "[5]; [22]", "result": 90, "unit": "%"}, {"measurement": "pest or weed control at 500 g/ha", "setting": "[5]; [22]", "result": 100, "unit": "%"}, {"measurement": "pest or weed control at 62 g/ha", "setting": "[6]; 62 g ai/ha, scale 0 to 100, 0 no effect, 100 complete control", "result": 100, "unit": "%"}, {"measurement": "pest or weed control at 125 g/ha", "setting": "[6]; 125 g ai/ha, scale 0 to 100", "result": 100, "unit": "%"}, {"measurement": "pest or weed control at 250 g/ha", "setting": "[6]; 250 g ai/ha, scale 0 to 100", "result": 100, "unit": "%"}, {"measurement": "pest or weed control at 500 g/ha", "setting": "[6]; 500 g ai/ha, scale 0 to 100", "result": 100, "unit": "%"}, {"measurement": "pest or weed control at 62 g/ha", "setting": "[7]; 62 g ai/ha, scale 0 to 100 (0 no effect, 100 complete control), read-out: Bermudagrass plant response rating", "result": 5, "unit": "%"}, {"measurement": "pest or weed control at 125 g/ha", "setting": "[7]; 125 g ai/ha, scale 0 to 100, read-out: Plant response rating, Bermudagrass", "result": 50, "unit": "%"}]}]}
